Results: publication PMC11945475, “Nasal Administration of a Nanoemulsion Based on Methyl Ferulate and Eugenol Encapsulated in Chitosan Oleate: Uptake Studies in the Central Nervous System” (Pharmaceutics, 2025)

What was measured:
[1] = rat, Fer 1 mg/kg i.v.; cited from earlier work
[2] = parameters: method as in PMID 33547615; details: rats, Fer at doses up to 40 mg/kg; cited from earlier work
[3] = Intravenous administration of Fer-Me to rats (bloodstream and CSF pharmacokinetics); format: in vivo, rat
Procedure: Charles River laboratories, Calco, Italy) bloodstream and CSF. […] The sample size (4 rats/group) has been chosen based on our previous studies. The experimental procedures were approved by the Italian Ministry of Health and were performed in accordance with the European Communities Council Directive of September 2010 (2010/63/EU). According to the ARRIVE guidelines, all possible efforts were made to minimize animal pain and discomfort and to reduce the number of experimental subjects. Fer-Me solution (2.5 mg/mL final concentration, 15% v/v EtOH content) was prepared by first dissolving Fer-Me in EtOH and then adding this latter solution to a saline solution (0.9% NaCl). […] The aqueous phase was then subjected to a double extraction with 1 mL of H2O-saturated ethyl acetate. […] Data were acquired and processed through CLASS-VP Software; version 7.2.1 (Shimadzu Italia, Milan, Italy). The mobile phase was eluted under isocratic conditions (0.8 mL/min) and was constituted by a mixture of acetic acid in H2O (0.4% v/v) and MeOH, whose ratio was 40:60 (v/v). The UV-Vis detector was set at 320 nm for the detection of Fer-Me, its hydrolysis product Fer, and Caf-Me, which was utilized as an internal standard during blood sample extraction. […] The average recoveries were approximately 40% for Fer and 58% for Fer-Me. For this reason, the concentrations of these compounds were determined by their peak area ratio with respect to the internal standard (Caf-Me). […] Fer-Me in vivo half-life (t1/2) in the rats' bloodstream was determined using nonlinear regression (exponential decay) of concentration values quantified at appropriate time intervals after infusion, further validated by applying linear regression to the semi-logarithmic plot.

[4] = rat, after Fer-Me 10 mg/kg i.v. infusion

## COc1cc(/C=C/C(=O)O)ccc1O [Fer, ferulic acid]
[1]
  AUC in CSF: 3.3 ± 0.3 µg·min/mL
  AUC in the bloodstream: 244 ± 13 µg·min/mL
  Cmax in CSF: 80 ± 10 ng/mL
  Tmax in CSF: 1 h
[2]
  side effects: no side effects
[3]; rat bloodstream, after Fer-Me 10 mg/kg i.v.
  Fer AUC as percentage of the Fer-Me AUC value: 1.3%
[3]; rat, about 20 min after end of Fer-Me 10 mg/kg i.v. infusion
  Fer concentration in the bloodstream: 0.205 ± 0.050 µg/mL
[3]; [4]
  AUC of hydrolysis product Fer in the bloodstream: 8.4 ± 0.8 µg·min/mL
  C0 of hydrolysis product Fer in the bloodstream: 209 ± 1 ng/mL
[3]; rat, from the end of Fer-Me 10 mg/kg i.v. infusion
  time within which Fer blood concentration decreased to zero: ≤ 60 min
